Test systems include A498 renal; LOX IMVI melanoma; PC-3 prostate; U251 CNS; NCI-H23 lung; MOLT-4 leukemia; TK-10 renal; BT-549 breast; HT29 colon; SF-268 CNS.
Holding throughout (experiment): growth of human tumour cells (NCI), 48 h

Each structure is given as a SMILES string.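 Values below derive from 48-hour exposures of cells grown in 96-well plates, with endpoints linearly interpolated between the two concentrations bracketing the appropriate inhibition level. TGI marks complete inhibition of growth.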

In the case of `CC[C@]12C=CCN3CCC4(c5cc(N=Nc6ccccc6)c(OC)cc5N(C)[C@H]4[C@@](O)(C(=O)OC)[C@@H]1OC(C)=O)[C@@H]32` (some centres undefined), the TGI in the test with A498 renal amounted to 32.2 µM; with LOX IMVI melanoma, 33 µM; in the test with PC-3 prostate, 29.8 µM; in the test on U251 CNS, 29.4 µM; in the test on NCI-H23 lung, 30.5 µM; in the test with MOLT-4 leukemia, 34.6 µM. The TGI was found to be 34.1 µM in the test on TK-10 renal, 35.6 µM in the test with BT-549 breast, 33.8 µM with HT29 colon and 33 µM with SF-268 CNS.

`OCC1OC(n2cnc3cccnc32)CC1O` (centres undefined): the TGI in the test on A498 renal, with LOX IMVI melanoma, in the test on PC-3 prostate, in the test with U251 CNS, with NCI-H23 lung and in the test on MOLT-4 leukemia was more than 100 µM throughout. For the same molecule, the TGI with TK-10 renal, with BT-549 breast, in the test on HT29 colon and with SF-268 CNS was more than 100 µM throughout.

In the case of `Cn1c(=O)c2c(-c3ccccc3)onc2n(C)c1=O`, the TGI in the test on A498 renal was more than 100 µM; in the test on LOX IMVI melanoma, 70.1 µM; in the test with PC-3 prostate, more than 100 µM; in the test on U251 CNS, more than 100 µM; with NCI-H23 lung, 41.6 µM; in the test on MOLT-4 leukemia it was 81.5 µM. The TGI in the test with TK-10 renal is 42.9 µM; in the test with BT-549 breast, 45.2 µM; in the test with HT29 colon, more than 100 µM; with SF-268 CNS, more than 100 µM.

`Nc1ccc2c(c1)C(=O)c1ccccc1-2`: the TGI in the test with A498 renal was more than 100 µM; in the test on LOX IMVI melanoma, more than 100 µM; in the test with PC-3 prostate, more than 100 µM; with U251 CNS, more than 100 µM; in the test on NCI-H23 lung, more than 100 µM; with MOLT-4 leukemia it was 75.1 µM. Besides, the TGI in the test with TK-10 renal is more than 100 µM; in the test on BT-549 breast, 83.5 µM; in the test with HT29 colon, more than 100 µM; with SF-268 CNS, more than 100 µM.

In the case of `O=C(C1=C(C(=O)c2ccccc2)SC2(S1)C(C(=O)c1ccccc1)=C(C(=O)c1ccccc1)Sc1c2ssc1=O)c1ccccc1`, the TGI is 31.2 µM in the test on A498 renal; more than 100 µM with LOX IMVI melanoma; more than 100 µM with PC-3 prostate; more than 100 µM with U251 CNS; more than 100 µM with NCI-H23 lung; more than 100 µM with MOLT-4 leukemia. The TGI in the test with TK-10 renal, with BT-549 breast, with HT29 colon and in the test with SF-268 CNS was more than 100 µM throughout.

`N#CC1=C(N)C(C#N)(C#N)C(c2ccc(F)cc2)C=C1C1CC1` (centres undefined): the TGI stood at 23.5 µM in the test on A498 renal; 14.5 µM in the test on LOX IMVI melanoma; 21.8 µM with PC-3 prostate; 18.2 µM in the test on U251 CNS; 13.8 µM in the test with NCI-H23 lung; 25.5 µM with MOLT-4 leukemia. Moreover, the TGI in the test on TK-10 renal was 44 µM; in the test with BT-549 breast, 12.5 µM; in the test with HT29 colon it was 22.8 µM; in the test with SF-268 CNS, 16 µM.

As for `N#Cc1c(Nc2ccc(F)cc2)[n+]([O-])c2ccc(Cl)cc2[n+]1[O-]`, the TGI in the test on A498 renal is 8.63 µM; in the test with LOX IMVI melanoma, 4.27 µM; in the test on PC-3 prostate, more than 100 µM; in the test on U251 CNS, 19.1 µM; in the test on NCI-H23 lung, 23.4 µM; in the test on MOLT-4 leukemia it was 9.09 µM. The TGI was more than 100 µM in the test on TK-10 renal, 74.4 µM in the test on BT-549 breast, more than 100 µM in the test on HT29 colon and 14.2 µM in the test with SF-268 CNS.

In the case of `O=C(c1ccccc1)c1c(C(F)(F)F)n([O-])c2ccccc2[n+]1=O`, the TGI in the test on A498 renal is 4.72 µM; in the test on LOX IMVI melanoma, more than 100 µM; with PC-3 prostate it was 2.27 µM; in the test with U251 CNS, more than 100 µM; with NCI-H23 lung, 3.71 µM; in the test on MOLT-4 leukemia, 0.516 µM. The values for the TGI in the test with TK-10 renal, with BT-549 breast and in the test on HT29 colon were 3.6 µM, 1.93 µM and 2.23 µM, respectively.

With `C=CCC(CNC(=O)OCc1ccccc1)O[Si](C)(C)C(C)(C)C` (centres undefined), the TGI in the test with A498 renal is more than 100 µM; in the test on LOX IMVI melanoma, 47.1 µM; in the test on PC-3 prostate, more than 100 µM; with U251 CNS, 79.5 µM; with NCI-H23 lung, more than 100 µM; with MOLT-4 leukemia it was 70.1 µM. Besides, the TGI is more than 100 µM with TK-10 renal, more than 100 µM in the test with BT-549 breast, 59.1 µM in the test on HT29 colon and more than 100 µM with SF-268 CNS.

On to `O=C(O)C(CCc1ccccn1)c1ccccc1` (centres undefined), for which the TGI in the test with A498 renal, in the test with LOX IMVI melanoma, with PC-3 prostate, in the test with U251 CNS, with NCI-H23 lung and in the test with MOLT-4 leukemia was more than 100 µM each time. Also, the TGI in the test with TK-10 renal, in the test on BT-549 breast, in the test with HT29 colon and in the test on SF-268 CNS was more than 100 µM throughout.

`CCOC(=O)c1cc2c(OC(C)=O)ccc(OC(C)=O)c2s1`: the TGI with A498 renal was 12.5 µM; in the test on LOX IMVI melanoma it was 3.09 µM; with PC-3 prostate, 5.07 µM; in the test with U251 CNS, 10.4 µM; in the test on NCI-H23 lung it was 5.51 µM; in the test on MOLT-4 leukemia it was more than 24 µM. In addition, the TGI is 17.5 µM in the test with TK-10 renal, 4.97 µM with BT-549 breast, 10.7 µM with HT29 colon and 3.85 µM in the test on SF-268 CNS.

For the molecule `Cc1cc2ccccc2c[n+]1CC(O)C[n+]1cc2ccccc2cc1C`, the TGI with A498 renal, in the test on LOX IMVI melanoma, in the test on PC-3 prostate, with U251 CNS, in the test with NCI-H23 lung and in the test on MOLT-4 leukemia was more than 100 µM in each case. Besides, the TGI in the test with TK-10 renal, in the test on BT-549 breast, with HT29 colon and in the test with SF-268 CNS was more than 100 µM in each case.

For the molecule `c1ccc(CCN2CCCCCC2)nc1`, the TGI in the test with A498 renal, in the test on LOX IMVI melanoma, with PC-3 prostate, with U251 CNS, with NCI-H23 lung and in the test with MOLT-4 leukemia was more than 100 µM in each case. Further, the TGI in the test with TK-10 renal, with BT-549 breast, in the test on HT29 colon and in the test with SF-268 CNS was more than 100 µM in each case.

These data come from PubChem BioAssay (NCI).
